From ChEMBL document CHEMBL4507276 (2021)

Experiments:
Details in all cases: Compound concentration 1000.0 nM
[1] = target: Cyclin-dependent kinase 2 homolog (Plasmodium falciparum (isolate 3D7)) (UniProt P61075)
[2] = target: Wee1-like protein kinase 2 (Homo sapiens) (UniProt P0C1S8)
[3] = target: Ribosomal protein S6 kinase alpha-3 (Homo sapiens) (UniProt P51812)
[4] = target: MAP/microtubule affinity-regulating kinase 3 (Homo sapiens) (UniProt P27448)
[5] = target: Dual specificity mitogen-activated protein kinase kinase 1 (Homo sapiens) (UniProt Q02750)
[6] = target: Tyrosine-protein kinase FRK (Homo sapiens) (UniProt P42685)
[7] = target: Protein-tyrosine kinase 2-beta (Homo sapiens) (UniProt Q14289)
[8] = target: Ribosomal protein S6 kinase alpha-2 (Homo sapiens) (UniProt Q15349)
[9] = target: Calcium/calmodulin-dependent protein kinase type 1B (Homo sapiens) (UniProt Q6P2M8)
[10] = target: Tyrosine-protein kinase JAK1 (Homo sapiens) (UniProt P23458)
[11] = target: T1, Inhibitor of nuclear factor kappa-B kinase subunit alpha (Homo sapiens) (UniProt O15111)
T1 sequence (whole entry): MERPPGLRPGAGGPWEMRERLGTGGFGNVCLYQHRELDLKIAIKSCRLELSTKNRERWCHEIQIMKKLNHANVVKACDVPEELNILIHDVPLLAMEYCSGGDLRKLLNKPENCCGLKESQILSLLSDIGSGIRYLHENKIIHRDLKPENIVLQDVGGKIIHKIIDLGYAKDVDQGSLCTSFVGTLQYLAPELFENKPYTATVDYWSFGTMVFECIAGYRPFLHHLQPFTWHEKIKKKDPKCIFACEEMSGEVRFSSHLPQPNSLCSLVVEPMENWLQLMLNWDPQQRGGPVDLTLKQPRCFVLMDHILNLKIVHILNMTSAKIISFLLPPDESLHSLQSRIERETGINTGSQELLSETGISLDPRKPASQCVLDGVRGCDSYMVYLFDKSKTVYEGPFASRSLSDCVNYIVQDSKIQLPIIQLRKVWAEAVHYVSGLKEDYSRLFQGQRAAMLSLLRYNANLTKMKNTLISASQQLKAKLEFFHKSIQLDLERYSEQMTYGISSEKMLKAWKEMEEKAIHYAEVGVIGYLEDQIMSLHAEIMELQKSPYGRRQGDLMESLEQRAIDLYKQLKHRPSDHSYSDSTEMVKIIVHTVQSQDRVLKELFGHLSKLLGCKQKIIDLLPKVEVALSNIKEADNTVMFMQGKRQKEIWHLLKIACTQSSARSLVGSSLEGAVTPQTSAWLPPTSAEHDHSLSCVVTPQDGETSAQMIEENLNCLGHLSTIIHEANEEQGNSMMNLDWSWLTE

[12] = target: Casein kinase I isoform delta (Homo sapiens) (UniProt P48730)
[13] = target: T2, Serine/threonine-protein kinase Nek1 (Homo sapiens) (UniProt Q96PY6)
T2 sequence (whole entry): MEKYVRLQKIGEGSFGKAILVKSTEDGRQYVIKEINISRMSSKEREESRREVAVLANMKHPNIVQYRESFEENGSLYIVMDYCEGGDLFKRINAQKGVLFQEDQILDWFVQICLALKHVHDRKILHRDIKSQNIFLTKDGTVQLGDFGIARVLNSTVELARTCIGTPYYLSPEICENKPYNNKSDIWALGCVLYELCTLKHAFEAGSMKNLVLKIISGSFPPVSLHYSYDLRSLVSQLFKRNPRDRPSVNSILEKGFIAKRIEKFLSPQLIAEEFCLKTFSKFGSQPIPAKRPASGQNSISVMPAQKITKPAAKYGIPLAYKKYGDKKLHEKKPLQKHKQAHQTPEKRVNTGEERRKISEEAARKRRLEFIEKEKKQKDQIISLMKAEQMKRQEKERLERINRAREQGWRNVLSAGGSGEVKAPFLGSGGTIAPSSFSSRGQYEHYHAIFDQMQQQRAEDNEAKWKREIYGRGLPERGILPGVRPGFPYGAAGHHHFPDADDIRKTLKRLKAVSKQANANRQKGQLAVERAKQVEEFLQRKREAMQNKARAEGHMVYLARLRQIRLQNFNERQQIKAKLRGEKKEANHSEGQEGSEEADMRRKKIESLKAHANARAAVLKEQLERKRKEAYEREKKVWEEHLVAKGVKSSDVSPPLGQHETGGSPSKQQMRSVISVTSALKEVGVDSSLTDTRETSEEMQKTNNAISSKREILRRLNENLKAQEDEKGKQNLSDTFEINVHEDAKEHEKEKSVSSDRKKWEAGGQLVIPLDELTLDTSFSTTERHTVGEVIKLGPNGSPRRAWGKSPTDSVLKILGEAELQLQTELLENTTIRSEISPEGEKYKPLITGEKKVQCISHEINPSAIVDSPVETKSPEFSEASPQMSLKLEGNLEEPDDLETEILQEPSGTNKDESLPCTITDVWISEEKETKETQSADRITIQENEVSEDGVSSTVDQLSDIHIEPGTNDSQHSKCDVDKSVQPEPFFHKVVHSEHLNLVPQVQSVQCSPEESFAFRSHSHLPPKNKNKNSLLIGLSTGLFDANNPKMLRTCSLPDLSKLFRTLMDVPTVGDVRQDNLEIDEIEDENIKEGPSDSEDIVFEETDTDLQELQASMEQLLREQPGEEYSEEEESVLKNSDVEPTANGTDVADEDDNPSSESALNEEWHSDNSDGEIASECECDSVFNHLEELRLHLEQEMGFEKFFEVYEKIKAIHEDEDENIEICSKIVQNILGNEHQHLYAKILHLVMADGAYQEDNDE

[14] = target: Cyclin-dependent kinase 15 (Homo sapiens) (UniProt Q96Q40)
Chain of Cyclin-dependent kinase 15 (Homo sapiens) (Q96Q40 whole entry): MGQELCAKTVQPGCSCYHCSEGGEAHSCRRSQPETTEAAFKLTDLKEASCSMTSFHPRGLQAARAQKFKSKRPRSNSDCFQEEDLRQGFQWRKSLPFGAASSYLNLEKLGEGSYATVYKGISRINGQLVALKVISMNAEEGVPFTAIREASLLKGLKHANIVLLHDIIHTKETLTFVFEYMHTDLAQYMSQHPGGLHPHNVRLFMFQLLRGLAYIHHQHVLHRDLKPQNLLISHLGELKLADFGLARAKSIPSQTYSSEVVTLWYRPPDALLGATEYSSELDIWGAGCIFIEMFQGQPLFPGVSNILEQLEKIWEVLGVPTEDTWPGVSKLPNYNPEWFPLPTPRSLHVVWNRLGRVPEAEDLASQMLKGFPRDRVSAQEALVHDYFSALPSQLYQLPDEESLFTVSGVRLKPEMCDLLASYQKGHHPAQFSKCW

Chain of Tyrosine-protein kinase JAK1 (Homo sapiens) (P23458 whole entry): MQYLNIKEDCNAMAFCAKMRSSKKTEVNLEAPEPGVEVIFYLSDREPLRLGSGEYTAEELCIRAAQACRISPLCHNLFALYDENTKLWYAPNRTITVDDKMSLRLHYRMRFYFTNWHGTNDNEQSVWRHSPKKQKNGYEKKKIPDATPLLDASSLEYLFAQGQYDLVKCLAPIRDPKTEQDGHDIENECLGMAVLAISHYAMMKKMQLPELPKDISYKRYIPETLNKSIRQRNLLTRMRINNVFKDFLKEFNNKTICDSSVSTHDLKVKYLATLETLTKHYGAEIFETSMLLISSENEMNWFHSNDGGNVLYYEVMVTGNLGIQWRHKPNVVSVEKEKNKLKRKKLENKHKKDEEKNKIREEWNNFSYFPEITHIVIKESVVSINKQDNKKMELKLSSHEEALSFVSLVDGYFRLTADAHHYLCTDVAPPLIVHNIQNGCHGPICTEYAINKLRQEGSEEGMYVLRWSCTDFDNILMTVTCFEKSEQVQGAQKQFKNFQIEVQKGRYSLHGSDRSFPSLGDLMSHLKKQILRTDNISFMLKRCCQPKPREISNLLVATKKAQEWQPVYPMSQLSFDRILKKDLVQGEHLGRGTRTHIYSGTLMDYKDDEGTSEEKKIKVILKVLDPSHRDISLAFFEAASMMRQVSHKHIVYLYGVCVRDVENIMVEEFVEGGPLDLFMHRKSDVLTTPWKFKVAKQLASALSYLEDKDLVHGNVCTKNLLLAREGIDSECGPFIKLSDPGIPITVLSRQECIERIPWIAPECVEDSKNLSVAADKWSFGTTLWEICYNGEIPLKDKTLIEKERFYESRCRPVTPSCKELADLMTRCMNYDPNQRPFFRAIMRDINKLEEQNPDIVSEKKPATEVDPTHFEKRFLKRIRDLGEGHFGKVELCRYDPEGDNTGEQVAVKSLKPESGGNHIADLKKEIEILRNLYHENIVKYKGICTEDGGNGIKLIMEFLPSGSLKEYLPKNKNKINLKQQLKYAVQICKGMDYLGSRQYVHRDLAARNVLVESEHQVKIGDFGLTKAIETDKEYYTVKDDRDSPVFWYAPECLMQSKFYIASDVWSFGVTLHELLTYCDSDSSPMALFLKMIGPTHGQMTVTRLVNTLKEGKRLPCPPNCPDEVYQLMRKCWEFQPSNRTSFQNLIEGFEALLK
Chain of Cyclin-dependent kinase 2 homolog (Plasmodium falciparum (isolate 3D7)) (P61075 whole entry): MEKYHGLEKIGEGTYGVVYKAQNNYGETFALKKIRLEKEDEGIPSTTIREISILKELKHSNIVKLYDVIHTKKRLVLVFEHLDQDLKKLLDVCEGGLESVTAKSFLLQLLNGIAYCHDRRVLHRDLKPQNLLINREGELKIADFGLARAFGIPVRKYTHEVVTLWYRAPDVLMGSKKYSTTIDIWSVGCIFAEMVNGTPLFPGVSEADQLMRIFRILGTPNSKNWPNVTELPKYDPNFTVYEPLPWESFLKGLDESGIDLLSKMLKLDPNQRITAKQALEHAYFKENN
Chain of Calcium/calmodulin-dependent protein kinase type 1B (Homo sapiens) (Q6P2M8 whole entry): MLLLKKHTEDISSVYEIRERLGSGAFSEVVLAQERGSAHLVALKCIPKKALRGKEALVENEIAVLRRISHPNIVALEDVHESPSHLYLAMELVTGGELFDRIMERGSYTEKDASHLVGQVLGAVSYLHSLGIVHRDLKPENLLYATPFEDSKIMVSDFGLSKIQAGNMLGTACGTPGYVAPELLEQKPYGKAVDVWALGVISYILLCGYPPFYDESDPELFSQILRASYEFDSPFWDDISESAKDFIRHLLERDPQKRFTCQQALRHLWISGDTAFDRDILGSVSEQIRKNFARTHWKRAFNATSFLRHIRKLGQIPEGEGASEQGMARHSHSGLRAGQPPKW
Chain of Tyrosine-protein kinase FRK (Homo sapiens) (P42685 whole entry): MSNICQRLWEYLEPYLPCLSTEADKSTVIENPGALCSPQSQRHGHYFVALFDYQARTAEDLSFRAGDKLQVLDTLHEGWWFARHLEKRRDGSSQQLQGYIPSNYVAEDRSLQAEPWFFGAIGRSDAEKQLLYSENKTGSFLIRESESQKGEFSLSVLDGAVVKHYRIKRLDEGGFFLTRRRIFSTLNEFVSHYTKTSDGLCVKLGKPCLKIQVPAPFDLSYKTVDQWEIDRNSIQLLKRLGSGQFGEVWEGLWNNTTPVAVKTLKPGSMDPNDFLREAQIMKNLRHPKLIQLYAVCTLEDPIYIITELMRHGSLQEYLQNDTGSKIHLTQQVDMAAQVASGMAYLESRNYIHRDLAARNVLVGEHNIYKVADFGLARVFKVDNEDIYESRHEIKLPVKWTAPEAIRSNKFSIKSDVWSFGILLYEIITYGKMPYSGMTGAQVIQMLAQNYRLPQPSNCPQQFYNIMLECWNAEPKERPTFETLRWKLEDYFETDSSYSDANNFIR
Chain of Ribosomal protein S6 kinase alpha-2 (Homo sapiens) (Q15349 whole entry): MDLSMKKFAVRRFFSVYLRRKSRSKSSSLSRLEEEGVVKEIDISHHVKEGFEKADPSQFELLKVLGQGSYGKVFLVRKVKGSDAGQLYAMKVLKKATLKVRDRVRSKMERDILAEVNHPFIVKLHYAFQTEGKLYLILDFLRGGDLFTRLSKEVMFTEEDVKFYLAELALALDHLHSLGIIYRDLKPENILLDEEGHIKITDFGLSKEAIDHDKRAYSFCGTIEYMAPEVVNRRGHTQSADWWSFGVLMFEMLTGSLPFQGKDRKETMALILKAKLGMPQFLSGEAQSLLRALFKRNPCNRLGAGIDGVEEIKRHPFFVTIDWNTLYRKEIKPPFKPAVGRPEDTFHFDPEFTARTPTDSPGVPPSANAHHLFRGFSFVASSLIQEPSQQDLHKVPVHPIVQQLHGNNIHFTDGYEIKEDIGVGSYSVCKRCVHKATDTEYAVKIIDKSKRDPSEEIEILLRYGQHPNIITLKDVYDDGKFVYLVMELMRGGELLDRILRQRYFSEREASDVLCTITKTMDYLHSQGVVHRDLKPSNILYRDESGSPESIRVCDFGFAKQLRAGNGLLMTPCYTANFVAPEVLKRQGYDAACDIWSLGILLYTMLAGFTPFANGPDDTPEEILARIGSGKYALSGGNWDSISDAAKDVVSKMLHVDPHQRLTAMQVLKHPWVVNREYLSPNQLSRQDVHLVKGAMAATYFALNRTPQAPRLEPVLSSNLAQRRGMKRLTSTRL
Chain of Casein kinase I isoform delta (Homo sapiens) (P48730 whole entry, looked up, canonical isoform): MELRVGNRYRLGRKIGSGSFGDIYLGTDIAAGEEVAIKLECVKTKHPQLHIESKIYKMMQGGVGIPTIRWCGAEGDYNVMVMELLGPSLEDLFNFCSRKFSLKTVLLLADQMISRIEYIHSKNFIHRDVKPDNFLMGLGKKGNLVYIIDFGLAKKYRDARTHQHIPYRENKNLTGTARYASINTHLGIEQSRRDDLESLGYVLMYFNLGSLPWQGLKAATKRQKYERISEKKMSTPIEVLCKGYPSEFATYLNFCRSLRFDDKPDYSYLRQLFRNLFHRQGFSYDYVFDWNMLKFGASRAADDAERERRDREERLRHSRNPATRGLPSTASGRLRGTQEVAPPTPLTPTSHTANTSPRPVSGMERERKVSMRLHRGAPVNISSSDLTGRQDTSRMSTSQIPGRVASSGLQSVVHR
Chain of Ribosomal protein S6 kinase alpha-3 (Homo sapiens) (P51812 whole entry): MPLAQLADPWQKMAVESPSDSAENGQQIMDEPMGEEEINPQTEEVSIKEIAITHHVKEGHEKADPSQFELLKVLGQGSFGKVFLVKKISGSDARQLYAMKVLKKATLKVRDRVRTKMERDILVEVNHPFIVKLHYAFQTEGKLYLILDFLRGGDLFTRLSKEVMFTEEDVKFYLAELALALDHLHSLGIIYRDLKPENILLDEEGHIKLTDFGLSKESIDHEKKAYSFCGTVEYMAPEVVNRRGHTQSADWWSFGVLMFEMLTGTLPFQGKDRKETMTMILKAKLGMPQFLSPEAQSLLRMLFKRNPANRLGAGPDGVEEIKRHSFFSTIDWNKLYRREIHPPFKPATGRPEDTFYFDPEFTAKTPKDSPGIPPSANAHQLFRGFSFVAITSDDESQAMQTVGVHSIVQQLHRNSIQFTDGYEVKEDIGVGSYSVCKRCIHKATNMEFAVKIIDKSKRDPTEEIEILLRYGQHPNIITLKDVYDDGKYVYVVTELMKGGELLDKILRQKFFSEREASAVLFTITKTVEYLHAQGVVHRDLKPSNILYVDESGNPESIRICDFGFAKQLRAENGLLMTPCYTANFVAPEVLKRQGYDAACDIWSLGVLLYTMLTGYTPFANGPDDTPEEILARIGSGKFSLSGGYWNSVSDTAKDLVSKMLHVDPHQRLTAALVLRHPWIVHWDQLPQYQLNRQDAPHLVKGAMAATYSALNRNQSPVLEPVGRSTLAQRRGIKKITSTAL
Chain of Dual specificity mitogen-activated protein kinase kinase 1 (Homo sapiens) (Q02750 whole entry): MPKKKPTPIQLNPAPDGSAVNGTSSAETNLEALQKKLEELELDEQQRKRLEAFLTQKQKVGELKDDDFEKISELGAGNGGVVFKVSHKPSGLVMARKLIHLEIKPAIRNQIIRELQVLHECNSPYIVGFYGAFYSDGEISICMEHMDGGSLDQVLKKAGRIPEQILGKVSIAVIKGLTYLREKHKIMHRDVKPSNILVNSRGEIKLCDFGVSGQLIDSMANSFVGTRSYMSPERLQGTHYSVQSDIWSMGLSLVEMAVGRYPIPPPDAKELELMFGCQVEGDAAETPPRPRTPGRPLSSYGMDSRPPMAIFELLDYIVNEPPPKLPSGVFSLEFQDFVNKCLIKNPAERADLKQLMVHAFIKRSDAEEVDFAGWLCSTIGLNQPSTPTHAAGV

| Compound | residual activity [1] [%] | residual activity [2] [%] | residual activity [3] [%] | residual activity [4] [%] | residual activity [5] [%] | residual activity [6] [%] | residual activity [7] [%] | residual activity [8] [%] | residual activity [9] [%] | residual activity [10] [%] | residual activity [11] [%] | residual activity [12] [%] | residual activity [13] [%] | residual activity [14] [%] |
| --- | --- | --- | --- | --- | --- | --- | --- | --- | --- | --- | --- | --- | --- | --- |
| CN(C)C(=O)Cn1cc(-c2nc(C3(c4ccc(-c5cnc(N)nc5)cc4)CC3)no2)cn1 [BI 0153] | 100 | 99 | 85 | 100 | 82 | 100 | 90 | 100 | 77 | 76 | 100 | 100 | 100 | 100 |
| CN(C)C(=O)Cn1cc(-c2nc([C@@](C)(c3ccc(-c4cnc(N)nc4)cc3)C3CC3)no2)cn1 [BI 665915] | 0 | 100 | 100 | 99 | 89 | 90 | 87 | 85 | 88 | 100 | 0 | 96 | 100 | 94 |
